In patent publication US8658661B2, “Oxadiazole inhibitors of leukotriene production” (Boehringer Ingelheim International GmbH, priority 2010, dated 2014) one finds IC50 data, which are given here for 26 molecules.

As a reminder, the IC50 is the concentration that inhibits the measured activity by half.

For experiment [1], the target named is T1, recombinant human FLAP protein (Homo sapiens, UniProt P20292).
T1 construct: made in house; host or cells: Sf9 insect cells (100,000×g membrane pellet used)
T1 sequence (P20292 1-161): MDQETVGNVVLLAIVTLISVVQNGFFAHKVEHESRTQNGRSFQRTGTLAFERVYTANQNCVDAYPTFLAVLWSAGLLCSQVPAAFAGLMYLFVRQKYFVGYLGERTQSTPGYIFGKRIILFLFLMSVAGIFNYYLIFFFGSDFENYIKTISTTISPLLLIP
The experiment is described as follows: FLAP binding assay (SPA, displacement of [125I]L-691,831). The note with it: membranes of sf9 cells expressing recombinant human FLAP; [125I]L-691,831 probe; read-out: FLAP binding IC50. In outline:
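Membranes from sf9 cells expressing human FLAP in pH 7.5 Tris buffer (MgCl2, EDTA, PMSF). Non-specific binding defined with 10 μM cold L-691,831.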

The subject of experiment [2] is synthesis of LTB4 in human whole blood. The experiment is described as follows: Human whole blood assay (inhibition of LTB4 synthesis, calcimycin stimulated). The format is cell-based. The note with it: heparinized human whole blood, calcimycin 20 μM, plasma LTB4. In short, it runs like this: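 LTB4 levels in plasma were measured by antibody-based HTRF after heparinized human whole blood, pretreated with compound (15 min, 37° C), was challenged with 20 μM calcimycin for 30 min at 37° C.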

For the molecule `Cc1nc(N)ncc1-c1ccc([C@@](C)(c2noc(-c3cnn(CC(=O)N(C)C)c3)n2)C2CC2)cc1` [Example 258, 2-[4-(3-{(S)-1-[4-(2-Amino-4-methyl-pyrimidin-5-yl)-phenyl]-1-cyclopropyl-ethyl}-[1,2,4]oxadiazol-5-yl)-pyrazol-1-yl]-N,N-dimethyl-acetamide], the IC50 in experiment [1] is 430 nM; in experiment [2] it was 2300 nM.

Regarding `CC(C)C(C)(c1ccc(-c2cnc(N)nc2)cc1)c1noc(-c2ccc(C(F)(F)F)nc2)n1` (stereo not shown) [Example 136, 5-[4-(3-methyl-2-{5-[6-(trifluoromethyl)pyridin-3-yl]-1,2,4-oxadiazol-3-yl}butan-2-yl)phenyl]pyrimidin-2-amine], the results for the half-inhibitory concentration (IC50) in experiment [1] and in experiment [2] were 5.4 nM and 320 nM, respectively.

As to `CC(C)C(C)(c1ccc(-c2cnc(N)nc2)cc1)c1noc(-c2cccnc2)n1` (stereo not shown) [Example 3, 5-(4-{3-methyl-2-[5-(pyridin-3-yl)-1,2,4-oxadiazol-3-yl]butan-2-yl}phenyl)pyrimidin-2-amine], the IC50 in experiment [1] came to 1.7 nM; in experiment [2] it was 94 nM.

For the molecule `CC(C)C(C)(c1ccc(-c2cnc(N)nc2)cc1)c1noc(C2CCCCC2)n1` (stereo not shown) [Example 119, 5-{4-[2-(5-cyclohexyl-1,2,4-oxadiazol-3-yl)-3-methylbutan-2-yl]phenyl}pyrimidin-2-amine], the values for the IC50 in experiment [1] and in experiment [2] were 9.2 nM and 900 nM, respectively.

On to `CC(C)[C@@](C)(c1ccc(-c2cnc(N)nc2)cc1)c1noc(-c2ccnn2C)n1` [Example 32, 5-(4-{(2S)-3-methyl-2-[5-(1-methyl-1H-pyrazol-5-yl)-1,2,4-oxadiazol-3-yl]butan-2-yl}phenyl)pyrimidin-2-amine], for which the IC50 in experiment [1] stood at 18 nM; in experiment [2], 2500 nM.

For `CC(C)C(C)(c1ccc(-c2cnc(N)nc2)cc1)c1noc(N2CCC(C(=O)O)CC2)n1` (stereo not shown) [Example 219, 1-(3-{1-[4-(2-Amino-pyrimidin-5-yl)-phenyl]-1,2-dimethyl-propyl}-[1,2,4]oxadiazol-5-yl)-piperidine-4-carboxylic acid], the IC50 in experiment [1] is 39 nM; in experiment [2], over 5000 nM.

Turning to `Cc1cc(-c2ccc([C@](C)(c3noc(-c4cnn(CC(C)(C)O)c4)n3)C3CC3)cc2)cnc1N` [Example 179, 1-[4-(3-{(R)-1-[4-(6-Amino-5-methyl-pyridin-3-yl)-phenyl]-1-cyclopropyl-ethyl}-[1,2,4]oxadiazol-5-yl)-pyrazol-1-yl]-2-methyl-propan-2-ol], the IC50 in experiment [1] amounted to 4.6 nM; in experiment [2], 49 nM.

Consider `CNC(=O)Cn1cc(-c2nc(C(C)(c3ccc(-c4cnc(N)nc4)cc3)C3CC3)no2)cn1` (stereo not shown) [Example 60, 2-[4-(3-{1-[4-(2-aminopyrimidin-5-yl)phenyl]-1-cyclopropylethyl}-1,2,4-oxadiazol-5-yl)-1H-pyrazol-1-yl]-N-methylacetamide], for which the IC50 in experiment [1] worked out at 4 nM; in experiment [2] it was 140 nM.

As to `CC(C)C(C)(c1ccc(-c2cnc(N)nc2)cc1)c1noc(CCC(=O)O)n1` (stereo not shown) [Example 94, 3-(3-{2-[4-(2-aminopyrimidin-5-yl)phenyl]-3-methylbutan-2-yl}-1,2,4-oxadiazol-5-yl)propanoic acid], the IC50 in experiment [1] was 350 nM; in experiment [2], over 5000 nM.

Take `CC(C)C(C)(c1ccc(-c2cnc(N)nc2)cc1)c1noc(C2(C(=O)O)CC2)n1` (stereo not shown) [Example 95, 1-(3-{2-[4-(2-aminopyrimidin-5-yl)phenyl]-3-methylbutan-2-yl}-1,2,4-oxadiazol-5-yl)cyclopropanecarboxylic acid]: the IC50 in experiment [1] is 130 nM; in experiment [2], over 5000 nM.

On to `CC(C)C(C)(c1ccc(-c2cnc(N)nc2)cc1)c1noc(N2C3CCC2CC(O)C3)n1` (stereo not shown) [Example 235, 8-(3-{1-[4-(2-Amino-pyrimidin-5-yl)-phenyl]-1,2-dimethyl-propyl}-[1,2,4]oxadiazol-5-yl)-8-aza-bicyclo[3.2.1]octan-3-ol], for which the IC50 in experiment [1] is 29 nM; in experiment [2] it was 780 nM.

For `CC(c1ccc(-c2cnc(N)nc2)cc1)(c1noc(N2CC(O)C2)n1)C1CC1` (stereo not shown) [Example 274, 1-(3-{1-[4-(2-Amino-pyrimidin-5-yl)-phenyl]-1-cyclopropyl-ethyl}-[1,2,4]oxadiazol-5-yl)-azetidin-3-ol], the figures for the IC50 in experiment [1] and in experiment [2] were 40 nM and 200 nM, respectively.

With `CO[C@@H]1CCN(C(=O)Cn2cc(-c3nc([C@@](C)(c4ccc(-c5cnc(N)nc5)cc4)C4CC4)no3)cn2)C1` [Example 220, 2-[4-(3-{(R)-1-[4-(2-Amino-pyrimidin-5-yl)-phenyl]-1-cyclopropyl-ethyl}-[1,2,4]oxadiazol-5-yl)-pyrazol-1-yl]-1-((R)-3-methoxy-pyrrolidin-1-yl)-ethanone], the IC50 worked out at 8.5 nM in experiment [1] and 210 nM in experiment [2].

`Cn1cc(-c2nc(C(c3ccc(-c4cnc(N)nc4)cc3)C(C)(C)C)no2)cn1` (stereo not shown) [Example 58, 5-(4-{2,2-dimethyl-1-[5-(1-methyl-1H-pyrazol-4-yl)-1,2,4-oxadiazol-3-yl]propyl}phenyl)pyrimidin-2-amine]: the IC50 in experiment [1] worked out at 11 nM; in experiment [2], 190 nM.

Turning to `CC(C)C(C)(c1ccc(-c2cnc(N)nc2)cc1)c1noc(NC2CCN(C)CC2)n1` (stereo not shown) [Example 236, 5-(4-{1,2-Dimethyl-1-[5-(1-methyl-piperidin-4-ylamino)-[1,2,4]oxadiazol-3-yl]-propyl}-phenyl)-pyrimidin-2-ylamine], the IC50 stood at 89 nM in experiment [1] and 1300 nM in experiment [2].

On to `COCCOCc1nc(C(C)(c2ccc(-c3cnc(N)nc3)cc2)C(C)C)no1` (stereo not shown) [Example 229, 5-(4-{1-[5-(2-Methoxy-ethoxymethyl)-[1,2,4]oxadiazol-3-yl]-1,2-dimethyl-propyl}-phenyl)-pyrimidin-2-ylamine], for which the 50% inhibitory concentration (IC50) in experiment [1] amounted to 99 nM; in experiment [2], 550 nM.

`COCCN(C)C(=O)Cn1cc(-c2nc([C@@](C)(c3ccc(-c4cnc(N)nc4)cc3)C3CC3)no2)cn1` [Example 194, 2-[4-(3-{(R)-1-[4-(2-Amino-pyrimidin-5-yl)-phenyl]-1-cyclopropyl-ethyl}-[1,2,4]oxadiazol-5-yl)-pyrazol-1-yl]-N-(2-methoxy-ethyl)-N-methyl-acetamide]: the figures for the IC50 in experiment [1] and in experiment [2] were 6 nM and 96 nM, respectively.

Turning to `COCCn1cc(-c2nc(C(C)(C)c3ccc(-c4cnc(N)nc4)cc3)no2)cn1` [Example 76, 5-[4-(2-{5-[1-(2-methoxyethyl)-1H-pyrazol-4-yl]-1,2,4-oxadiazol-3-yl}propan-2-yl)phenyl]pyrimidin-2-amine], the IC50 was determined as 35 nM in experiment [1] and 270 nM in experiment [2].

Take `CC(C)C(C)(c1ccc(-c2cnc(N)nc2)cc1)c1noc(-c2cncc3ccccc23)n1` (stereo not shown) [Example 127, 5-(4-{2-[5-(isoquinolin-4-yl)-1,2,4-oxadiazol-3-yl]-3-methylbutan-2-yl}phenyl)pyrimidin-2-amine]: the IC50 was determined as 2.9 nM in experiment [1] and 650 nM in experiment [2].

Regarding `CC(C)C(C)(c1ccc(-c2cnc(N)nc2)cc1)c1noc(NCC2CCOCC2)n1` (stereo not shown) [Example 201, 5-[4-(1,2-Dimethyl-1-{5-[(tetrahydro-pyran-4-ylmethyl)-amino]-[1,2,4]oxadiazol-3-yl}-propyl)-phenyl]-pyrimidin-2-ylamine], the 50% inhibitory concentration (IC50) was found to be 13 nM in experiment [1] and 200 nM in experiment [2].

For `CNc1ccc(-c2ccc([C@](C)(c3noc(-c4cnn(CC(=O)N(C)C)c4)n3)C3CC3)cc2)cn1` [Example 280, 2-[4-(3-{(R)-1-Cyclopropyl-1-[4-(6-methylamino-pyridin-3-yl)-phenyl]-ethyl}-[1,2,4]oxadiazol-5-yl)-pyrazol-1-yl]-N,N-dimethyl-acetamide], the IC50 in experiment [1] was 3 nM; in experiment [2], 35 nM.

For `CC(C)C(C)(c1ccc(-c2cnc(N)nc2)cc1)c1noc(-c2cccc(S(C)(=O)=O)c2)n1` (stereo not shown) [Example 148, 5-[4-(3-methyl-2-{5-[3-(methylsulfonyl)phenyl]-1,2,4-oxadiazol-3-yl}butan-2-yl)phenyl]pyrimidin-2-amine], the results for the IC50 in experiment [1] and in experiment [2] were 14 nM and 610 nM, respectively.

As to `Cc1cc(-c2ccc([C@](C)(c3noc(-c4cnn(C)c4)n3)C3CC3)cc2)cnc1N` [Example 185, 5-(4-{(R)-1-Cyclopropyl-1-[5-(1-methyl-1H-pyrazol-4-yl)-[1,2,4]oxadiazol-3-yl]-ethyl}-phenyl)-3-methyl-pyridin-2-ylamine], the IC50 in experiment [1] was determined as 1.9 nM; in experiment [2], 28 nM.

In the case of `CC(C)C(C)(c1ccc(-c2cnc(N)nc2)cc1)c1noc(NCC(C)(C)O)n1` (stereo not shown) [Example 82, 1-[(3-{2-[4-(2-aminopyrimidin-5-yl)phenyl]-3-methylbutan-2-yl}-1,2,4-oxadiazol-5-yl)amino]-2-methylpropan-2-ol], the results for the IC50 in experiment [1] and in experiment [2] were 13 nM and 220 nM, respectively.

Consider `CC(C)C(C)(c1ccc(-c2cnc(N)nc2)cc1)c1noc(N2CCC(CCO)CC2)n1` (stereo not shown) [Example 212, 2-[1-(3-{1-[4-(2-Amino-pyrimidin-5-yl)-phenyl]-1,2-dimethyl-propyl}-[1,2,4]oxadiazol-5-yl)-piperidin-4-yl]-ethanol], for which the half-maximal inhibitory concentration (IC50) came to 12 nM in experiment [1] and 86 nM in experiment [2].

Take `CC(C)C(C)(c1ccc(-c2cnc(N)nc2)cc1)c1noc(-c2cnn(C3COC3)c2)n1` (stereo not shown) [Example 161, 5-[4-(3-methyl-2-{5-[1-(oxetan-3-yl)-1H-pyrazol-4-yl]-1,2,4-oxadiazol-3-yl}butan-2-yl)phenyl]pyrimidin-2-amine]: the IC50 in experiment [1] turned out to be 2 nM; in experiment [2], 36 nM.
